pIC50: −log10 of the molar value. Some results are limits rather than exact numbers.

In one assay the test system is Pa16c cells. Kind of assay: Pa16c cell proliferation assay (resazurin). The settings on record: Table 2, inhibition of cell proliferation. It is filed as cell-based. The procedure: Pa16c cells are obtained from Dr. Channing Der, University of North Carolina at Chapel Hill. Briefly, cells are grown in Dulbecco's Modified Eagle Medium supplemented with 10% characterized fetal bovine serum (Invitrogen, Carlsbad, CA) and 1% Penicillin/Streptomycin/L-Glutamine at 37° C., 5% CO2, and 95% humidity. Cells are expanded until reaching 70-95% confluency at which point they are sub-cultured or harvested for assay use. A serial dilution of test compound is dispensed into a 384-well black clear bottom plate in triplicate. 750 cells are added per well in 50 μL complete growth medium in the 384-well plate. Plates are incubated for 67 to 72 h at 37° C., 5% CO2, and 95% humidity. At the end of the incubation, 40 μL of a […] solution of resazurin (Sigma, St. Louis, MO) in PBS is added to each well of the plate and plates are incubated for an additional 18 to 24 h at 37° C., 5% CO2, and 95% humidity. Plates are read on a Synergy2 or equivalent reader (Biotek, Winooski, VT) using an excitation of 540 nm and an emission of 600 nm. Data is analyzed using Prism software (Graphpad, San Diego, CA) to calculate IC50 values.
(In general: Resazurin is reduced to fluorescent resorufin, in cell work by metabolically active cells.)

A further assay has as its system HCT-116 cells. Kind of assay: HCT-116 cell proliferation assay (resazurin). It is filed as cell-based. The settings on record: Homo sapiens; Table 2, inhibition of cell proliferation; read-out: HCT-116. How it is done: HCT-116 cells (catalog #CCL-247) are obtained from the American Type Culture Collect (ATCC, Manassas, VA). Briefly, cells are grown in McCoy's 5A supplemented with 10% characterized fetal bovine serum (Invitrogen, Carlsbad, CA) and 1% Penicillin/Streptomycin/L-Glutamine at 37° C., 5% CO2, and 95% humidity. Cells are expanded until reaching 70-95% confluency at which point they are sub-cultured or harvested for assay use. A serial dilution of test compound is dispensed into a 384-well black clear bottom plate in triplicate. 375 cells are added per well in 50 μL complete growth medium in the 384-well plate. Plates are incubated for 67 to 72 h at 37° C., 5% CO2, and 95% humidity. At the end of the incubation, 40 μL of a […] solution of resazurin (Sigma, St. Louis, MO) in PBS is added to each well of the plate and plates are incubated for an additional 4 to 5 h at 37° C., 5% CO2, and 95% humidity. Plates are read on a Synergy2 or equivalent reader (Biotek, Winooski, VT) using an excitation of 540 nm and an emission of 600 nm. Data is analyzed using Prism software (Graphpad, San Diego, CA) to calculate IC50 values.

A further assay relates to HPAF-II cells. Kind of assay: HPAF-II cell proliferation assay (resazurin). It is filed as cell-based. Particulars: Homo sapiens; Table 2, inhibition of cell proliferation; read-out: HPAF-II. The procedure: HPAF-II cells (catalog #CRL-1997) are obtained from the American Type Culture Collect (ATCC, Manassas, VA). Briefly, cells are grown in Minimum Essential Media supplemented with 10% characterized fetal bovine serum (Invitrogen, Carlsbad, CA) and 1% Penicillin/Streptomycin/L-Glutamine at 37° C., 5% CO2, and 95% humidity. Cells are expanded until reaching 70-95% confluency at which point they are sub-cultured or harvested for assay use. A serial dilution of test compound is dispensed into a 384-well black clear bottom plate in triplicate. 750 cells are added per well in 50 μL complete growth medium in the 384-well plate. Plates are incubated for 115 to 120 h at 37° C., 5% CO2, and 95% humidity. At the end of the incubation, 40 μL of a […] solution of resazurin (Sigma, St. Louis, MO) in PBS is added to each well of the plate and plates are incubated for an additional 18 to 24 h at 37° C., 5% CO2, and 95% humidity. Plates are read on a Synergy2 or equivalent reader (Biotek, Winooski, VT) using an excitation of 540 nm and an emission of 600 nm. Data is analyzed using Prism software (Graphpad, San Diego, CA) to calculate IC50 values.

Another assay addresses T1, C-Raf kinase (Homo sapiens, UniProt P04049, Y340D/Y341D).
T1 construct: C-Raf residues 306-end; Y340D, Y341D with N-; purchased Sigma
Kind of assay: Biochemical assay for C-Raf (coupled pyruvate kinase/lactate dehydrogenase). The settings on record: Table 1, inhibition of biochemical activity; read-out: CRAF.

A further assay addresses T2, B-Raf kinase (Homo sapiens, UniProt P15056).
T2 construct: purchased Sigma
Kind of assay: Biochemical assay for B-Raf (coupled pyruvate kinase/lactate dehydrogenase). Particulars: Table 1, inhibition of biochemical activity; read-out: BRAF.

In a further assay the test system is MiaPaca-2 cells. Kind of assay: MiaPaca-2 cell proliferation assay (resazurin). It is filed as cell-based. The settings on record: Homo sapiens, MIA PaCa-2; Table 2, inhibition of cell proliferation; read-out: MiaPaca-2. The procedure: MiaPaca-2 cells (catalog #CRL-1420) are obtained from the American Type Culture Collect (ATTC, Manassas, VA). Briefly, cells were grown in DMVEM supplemented with […] fetal bovine serum (Invitrogen, Carlsbad, CA), 2.5% New Zealand sourced horse serum and 1% Penicillin/Streptomycin/L-Glutamine at 37° C., […], and […]. Cells are expanded until reaching […] at which point they are sub-cultured or harvested for assay use. For assays completed in 96-well plates, a serial dilution of test compound is dispensed into a 96-well black clear bottom plate in triplicate. Three thousand cells are added per well in 200 μL complete growth medium in the 96-well plate. Plates are incubated for 67 to 72 h at 37° C., 5% CO2, and 95% humidity. At the end of the incubation, 40 μL of a […] solution of resazurin (Sigma, St. Louis, MO) in PBS is added to each well of the plate and plates are incubated for an additional 5 to 6 h at 37° C., 5% CO2, and 95% humidity. For 384-well assays, a threefold, 8-point serial dilution of compound was spotted column wise into a 384 well black, clear bottom, tissue culture treated plate using the Beckman Coulter Echo 650. Likewise, a threefold, 8-point serial dilution of cobimetinib was spotted row wise into the 384 well black, clear bottom plate containing compound. DMSO concentration was constant across all wells at 0.4%. Seven hundred fifty cells are added per well in 50 μL complete growth medium in each 384-well plate. Plates are incubated for 67 to 72 h at 37° C., 5% CO2, and 95% humidity. At the end of the incubation, 10 μL of a 440 μM solution of resazurin (Sigma, St. Louis, MO) in PBS is added to each well of the plate and plates are incubated for an additional 4 to 6 h at 37° C., 5% CO2, and 95% humidity. Plates are read on a Synergy2 or equivalent reader (Biotek, Winooski VT) using an excitation of 540 nm and an emission of 600 nm. Data is analyzed using Prism software (Graphpad, San Diego, CA) to calculate IC50 values.

T2 sequence (P15056 416-766): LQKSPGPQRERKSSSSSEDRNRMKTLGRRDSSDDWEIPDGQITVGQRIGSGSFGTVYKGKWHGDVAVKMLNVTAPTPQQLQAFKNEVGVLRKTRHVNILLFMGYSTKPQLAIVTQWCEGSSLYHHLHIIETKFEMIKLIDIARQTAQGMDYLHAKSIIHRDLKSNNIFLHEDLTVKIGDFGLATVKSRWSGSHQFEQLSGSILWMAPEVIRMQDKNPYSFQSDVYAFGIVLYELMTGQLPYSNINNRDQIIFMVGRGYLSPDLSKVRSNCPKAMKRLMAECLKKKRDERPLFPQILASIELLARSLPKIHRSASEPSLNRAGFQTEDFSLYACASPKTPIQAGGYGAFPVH
T1 sequence (P04049 307-648 Y340D/Y341D): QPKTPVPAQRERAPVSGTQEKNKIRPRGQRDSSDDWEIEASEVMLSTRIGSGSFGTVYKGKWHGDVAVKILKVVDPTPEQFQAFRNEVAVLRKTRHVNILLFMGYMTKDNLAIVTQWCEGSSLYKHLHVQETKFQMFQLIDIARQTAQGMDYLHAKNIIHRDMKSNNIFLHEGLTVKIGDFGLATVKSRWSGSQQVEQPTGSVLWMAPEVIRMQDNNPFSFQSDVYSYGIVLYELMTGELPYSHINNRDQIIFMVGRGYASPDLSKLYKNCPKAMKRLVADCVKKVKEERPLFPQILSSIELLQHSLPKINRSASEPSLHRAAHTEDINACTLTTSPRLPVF

`CCc1ccc(NC(=O)c2cc(C(F)(F)F)cnn2)cc1-c1ccnc(-c2ccnc(C(=O)NC)c2)c1` [Example 37]: the pIC50 in the assay on Pa16c cells, with HCT-116 cells, in the assay with HPAF-II cells, at C-Raf kinase, on B-Raf kinase and in the assay on MiaPaca-2 cells was 5.00 to 6.00 each time.

For the compound `CNC(=O)c1cc(-c2cc(-c3cc(NC(=O)c4cc(C(F)(F)F)cnn4)ccc3C)cc(OCCO)n2)ccn1` [Example 35], the pIC50 was 6.30 to 7.00 in the assay on Pa16c cells; 6.30 to 7.00 in the assay with HCT-116 cells; 6.30 to 7.00 in the assay with HPAF-II cells; greater than 7.00 on C-Raf kinase; greater than 7.00 at B-Raf kinase; 6.30 to 7.00 in the assay with MiaPaca-2 cells.

Regarding `CNC(=O)c1cc(-c2cc(-c3cc(NC(=O)c4cc(C5CC5)cnn4)ccc3C)cc(OCCO)n2)ccn1` [Example 34], the pIC50 was 6.30 to 7.00 in the assay with Pa16c cells; 6.30 to 7.00 in the assay on HCT-116 cells; 6.00 to 6.30 with HPAF-II cells; greater than 7.00 at C-Raf kinase; greater than 7.00 at B-Raf kinase; 6.00 to 6.30 in the assay with MiaPaca-2 cells.

For `CNC(=O)c1cc(-c2cc(-c3cc(NC(=O)c4cc(C(C)(F)F)cnn4)ccc3C)cc(N[C@H](C)CO)n2)ccn1` [Example 38], the pIC50 with Pa16c cells is 6.30 to 7.00; in the assay with HCT-116 cells, 6.30 to 7.00; in the assay with HPAF-II cells it was 6.30 to 7.00; on C-Raf kinase, greater than 7.00; on B-Raf kinase it was greater than 7.00; with MiaPaca-2 cells it was 6.30 to 7.00.

For the compound `CNC(=O)c1cc(-c2cncc(-c3cc(NC(=O)c4cc(C#N)cnn4)ccc3C)c2)ccn1` [Example 46], the pIC50 was 5.00 to 6.00 in the assay on Pa16c cells; 6.00 to 6.30 with HCT-116 cells; 5.00 to 6.00 with HPAF-II cells; 6.30 to 7.00 on C-Raf kinase; 6.30 to 7.00 at B-Raf kinase; 5.00 to 6.00 in the assay on MiaPaca-2 cells.

For `CNC(=O)c1cc(-c2cc(-c3cc(NC(=O)c4cc(C#N)cnn4)ccc3C)cc(OCCO)n2)ccn1` [Example 49], the pIC50 in the assay on Pa16c cells is greater than 7.00; with HCT-116 cells, 6.00 to 6.30; in the assay on HPAF-II cells it was 6.00 to 6.30; at C-Raf kinase it was greater than 7.00; at B-Raf kinase it was greater than 7.00; in the assay with MiaPaca-2 cells it was 6.00 to 6.30.

Regarding `CNC(=O)c1cc(-c2cc(-c3cc(NC(=O)c4cc(C5CC5)cnn4)ccc3C)nc(NCCO)n2)ccn1` [Example 8], the pIC50 with Pa16c cells is 5.00 to 6.00; in the assay with HCT-116 cells, 6.30 to 7.00; in the assay on HPAF-II cells it was 5.00 to 6.00; on C-Raf kinase it was greater than 7.00; on B-Raf kinase it was greater than 7.00; in the assay on MiaPaca-2 cells, 6.00 to 6.30.

As for `CNC(=O)c1cc(-c2cc(-c3cc(NC(=O)c4cnc(C(F)(F)F)nc4)ccc3C)ccn2)ccn1` [Example 41], the pIC50 in the assay on Pa16c cells was 6.30 to 7.00; in the assay with HCT-116 cells it was 6.30 to 7.00; in the assay on HPAF-II cells, 6.30 to 7.00; at C-Raf kinase, 5.00 to 6.00; on B-Raf kinase it was 5.00 to 6.00; with MiaPaca-2 cells it was 6.00 to 6.30.

Consider `Cc1cc(-c2cc(NC(=O)c3cc(C(F)(F)F)cnn3)ccc2C)cc(-c2ccnc(C(N)=O)c2)n1` [Example 7], for which the pIC50 with Pa16c cells is 6.30 to 7.00; in the assay with HCT-116 cells, 6.30 to 7.00; with HPAF-II cells it was 6.30 to 7.00; on C-Raf kinase it was greater than 7.00; at B-Raf kinase it was 6.30 to 7.00; with MiaPaca-2 cells, 6.30 to 7.00.

As to `CNC(=O)c1cc(-c2cc(-c3cc(NC(=O)c4cc(C(F)(F)F)cnn4)ccc3C)cc(N[C@H](C)CO)n2)ccn1` [Example 29], the pIC50 was 6.30 to 7.00 in the assay with Pa16c cells; greater than 7.00 in the assay on HCT-116 cells; 6.30 to 7.00 in the assay on HPAF-II cells; greater than 7.00 on C-Raf kinase; greater than 7.00 at B-Raf kinase; 6.30 to 7.00 in the assay with MiaPaca-2 cells.

Turning to `Cc1ccc(NC(=O)c2cc(C(F)(F)F)cnn2)cc1-c1ccnc(-c2ccnc(C(N)=O)c2)c1` [Example 3, 4-(2-methyl-5-(5-(trifluoromethyl)pyridazine-3-carboxamido)phenyl)-[2,4′-bipyridine]-2′-carboxamide], the pIC50 is greater than 7.00 with Pa16c cells; greater than 7.00 with HCT-116 cells; 6.30 to 7.00 in the assay on HPAF-II cells; greater than 7.00 on C-Raf kinase; greater than 7.00 at B-Raf kinase; greater than 7.00 with MiaPaca-2 cells.

As to `CNC(=O)c1cc(-c2cc(-c3cc(NC(=N)c4cc(C(F)(F)F)cnn4)ccc3C)ccn2)ccn1` [Example 20], the pIC50 with Pa16c cells was 5.00 to 6.00; with HCT-116 cells, 5.00 to 6.00; in the assay with HPAF-II cells, 5.00 to 6.00; at C-Raf kinase, 6.30 to 7.00; at B-Raf kinase it was 6.00 to 6.30; in the assay on MiaPaca-2 cells it was 5.00 to 6.00.

The values are drawn from US20260176260A1, “DUAL RAF AND TUBULIN INHIBITORS AND METHODS OF USE THEREOF” (Deciphera Pharmaceuticals, LLC, priority 2023, published 2026).
